Data reported in patent publication US20260015315A1, “AMINO LIPID COMPOUND, PREPARATION METHOD THEREFOR, COMPOSITION THEREOF AND APPLICATION THEREOF” (SHENZHEN SHENXIN BIOTECHNOLOGY CO., LTD., priority 2022, published 2026).

Tested on: BALB/c mice
Test: In vivo delivery of lipid nanoparticle encapsulating luciferase mRNA (Fluc mRNA), IVIS imaging
Settings: for Total flux (fluorescence expression intensity): Fluc mRNA-LNP (amino lipid:DSPC:CHO-HP:PEG2000-DMG 48:10:40.5:1.5), whole body; for Total flux (fluorescence expression intensity) / Spleen (fluorescence expression intensity) / Liver (fluorescence expression intensity): 75 μL tail vein IV, female BALB/c mice, IVIS 6 hours after injection; for Spleen (fluorescence expression intensity) / (Spleen/Total Flux) * 100% / Multiple of spleen delivery/total delivery (Spleen/Total Flux) to Compound 118 / Liver (fluorescence expression intensity): Fluc mRNA-LNP; for (Spleen/Total Flux) * 100% / Multiple of spleen delivery/total delivery (Spleen/Total Flux) to Compound 118: tail vein IV, BALB/c mice, 6 hours; for Multiple of spleen delivery/total delivery (Spleen/Total Flux) to Compound 118: relative to Compound 118
Procedure: The amino lipid compound of the present disclosure, a helper lipid, a structural lipid, and a PEG-lipid were separately dissolved in absolute ethanol to prepare respective solutions at concentrations of 20 mg/mL, 10 mg/mL, 20 mg/mL, and 25 mg/mL, respectively. The above four solutions were pipetted at a molar ratio of the amino lipid compound: DSPC:CHO-HP:PEG2000-DMG of 48:10:40.5:1.5, and mixed well to prepare an alcohol phase.
(2) Encapsulation: The water phase and the alcohol phase were injected into a microfluidic chip at a flow rate of water phase:alcohol phase=12 mL/min: 4 mL/min by using a microfluidic preparation instrument (MPE-L2), and encapsulation was carried out at a flow rate of water phase:alcohol phase=9 mL/min: 3 mL/min to obtain mRNA-encapsulating lipid nanoparticle (mRNA-LNP).
(3) Dialysis: The product of step (2) was loaded in a dialysis bag and placed in a Tris Buffer-8% sucrose solution for replacement to remove ingredients such as residual ethanol, unassembled lipids. Dialysis was conducted for 2 h with magnetic stirring at room temperature and under protection from light (dialysate was replaced every 1 hour).
(4) The product of step (3) was sterilized by passing through a 0.22 μm microporous membrane, and then packaged.
Lipid nanoparticle formulations encapsulating Flue mRNA were prepared, with a concentration of Flue mRNA of 0.2 μg/μL, a mass ratio of Flue mRNA to Lipid of 1:10, a particle size of 80-130 nm, and a encapsulation efficiency of 80% or higher.
• Animal preparation: Female BALB/c mice of 6-8 weeks old were selected and raised in an SPF grade breeding room. Animal testing was conducted in strict accordance with the guidelines of national health institutions and animal ethics requirements.
In vivo Delivery: prior to injection of the test LNP formulations, the LNP formulations were gently and repeatedly inverted to thoroughly mix the formulation samples. A corresponding amount of the formulation samples were aspirated with a 1 ml insulin syringe, and the LNP formulations were injected by tail vein injection (IV), with 3 mice in duplicate per formulation. Each mouse was injected with 75 μL of the luciferase mRNA (Flue mRNA)-encapsulating lipid nanoparticle formulation prepared in Experimental Example 1.
6 hours after injection of LNP formulations, mice were injected with 200 μL D-Luciferin luciferase developing substrate (Catalog No. 122799; Manufacturer: Perkin Elmer). After the substrate was injected, the mice were anesthetized by injection of 200 μl of 2.5% avertin, and the injection time of luciferase developing substrate was recorded.
The fluorescence expression intensity induced by the lipid nanoparticle encapsulating luciferase mRNA (Flue mRNA) with a representative amino lipid compound is shown in Table 4, with the amino lipid compound 118 as a control.

Compound: CCCCCCCOCCCC(=O)N(CCCN(C)C)C(CCCCCCCCC(=O)OC(CCCCCC)CCCCCC)CCCCCCCCC(=O)OC(CCCCCC)CCCCCC [compound 132]
- Total flux (fluorescence expression intensity): 2.70E+07
- Spleen (fluorescence expression intensity): 6.10E+06
- (Spleen/Total Flux) * 100%: 22.59%
- Multiple of spleen delivery/total delivery (Spleen/Total Flux) to Compound 118: 19.82

Compound: CCCCCCC(CCCCCC)OC(=O)CCCCCCCCC(CCCCCCCCC(=O)OC(CCCCCC)CCCCCC)N(CCN(C)C)C(=O)COCCCCC [compound 145]
- Total flux (fluorescence expression intensity): 1.21E+07
- Spleen (fluorescence expression intensity): 1.04E+05
- (Spleen/Total Flux) * 100%: 0.86%
- Multiple of spleen delivery/total delivery (Spleen/Total Flux) to Compound 118: 0.75

Compound: CCCCCCOCC(=O)N(CCN(C)C)C(CCCCCCCCC(=O)OC(CCCCCC)CCCCCC)CCCCCCCCC(=O)OC(CCCCCC)CCCCCC [compound 146]
- Total flux (fluorescence expression intensity): 1.37E+07
- Spleen (fluorescence expression intensity): 6.65E+04
- (Spleen/Total Flux) * 100%: 0.49%
- Multiple of spleen delivery/total delivery (Spleen/Total Flux) to Compound 118: 0.43

Compound: CCCCCCCOCC(=O)N(CCN(C)C)C(CCCCCCCCC(=O)OC(CCCCCC)CCCCCC)CCCCCCCCC(=O)OC(CCCCCC)CCCCCC [compound 147]
- Total flux (fluorescence expression intensity): 4.97E+06
- Spleen (fluorescence expression intensity): 1.13E+05
- (Spleen/Total Flux) * 100%: 2.27%
- Multiple of spleen delivery/total delivery (Spleen/Total Flux) to Compound 118: 1.99

Compound: CCCCCCCCOCC(=O)N(CCN(C)C)C(CCCCCCCCC(=O)OC(CCCCCC)CCCCCC)CCCCCCCCC(=O)OC(CCCCCC)CCCCCC [compound 148]
- Total flux (fluorescence expression intensity): 4.45E+06
- Spleen (fluorescence expression intensity): 1.07E+05
- (Spleen/Total Flux) * 100%: 2.40%
- Multiple of spleen delivery/total delivery (Spleen/Total Flux) to Compound 118: 2.11

Compound: CCCCCCC(CCCCCC)OC(=O)CCCCCCCCC(CCCCCCCCC(=O)OC(CCCCCC)CCCCCC)N(CCN(C)C)C(=O)CCOCCCC [compound 149]
- Total flux (fluorescence expression intensity): 5.80E+06
- Spleen (fluorescence expression intensity): 1.29E+05
- (Spleen/Total Flux) * 100%: 2.22%
- Multiple of spleen delivery/total delivery (Spleen/Total Flux) to Compound 118: 1.95

Compound: CCCCCCC(CCCCCC)OC(=O)CCCCCCCCC(CCCCCCCCC(=O)OC(CCCCCC)CCCCCC)N(CCN(C)C)C(=O)CCOCCCCC [compound 150]
- Total flux (fluorescence expression intensity): 2.06E+07
- Liver (fluorescence expression intensity): 5.51E+06
- Spleen (fluorescence expression intensity): 2.27E+05
- (Spleen/Total Flux) * 100%: 1.10%
- Multiple of spleen delivery/total delivery (Spleen/Total Flux) to Compound 118: 0.97

Compound: CCCCCCOCCC(=O)N(CCN(C)C)C(CCCCCCCCC(=O)OC(CCCCCC)CCCCCC)CCCCCCCCC(=O)OC(CCCCCC)CCCCCC [compound 151]
- Total flux (fluorescence expression intensity): 2.29E+07
- Liver (fluorescence expression intensity): 8.91E+06
- Spleen (fluorescence expression intensity): 1.30E+05
- (Spleen/Total Flux) * 100%: 0.57%
- Multiple of spleen delivery/total delivery (Spleen/Total Flux) to Compound 118: 0.50

Compound: CCCCCCOCCCC(=O)N(CCN(C)C)C(CCCCCCCCC(=O)OC(CCCCCC)CCCCCC)CCCCCCCCC(=O)OC(CCCCCC)CCCCCC [compound 156]
- Total flux (fluorescence expression intensity): 3.07E+07
- Liver (fluorescence expression intensity): 9.75E+06
- Spleen (fluorescence expression intensity): 2.34E+05
- (Spleen/Total Flux) * 100%: 0.76%
- Multiple of spleen delivery/total delivery (Spleen/Total Flux) to Compound 118: 0.67

Compound: CCCCCCCOCCCC(=O)N(CCN(C)C)C(CCCCCCCCC(=O)OC(CCCCCC)CCCCCC)CCCCCCCCC(=O)OC(CCCCCC)CCCCCC [compound 157]
- Total flux (fluorescence expression intensity): 2.80E+07
- Liver (fluorescence expression intensity): 1.07E+07
- Spleen (fluorescence expression intensity): 2.26E+05
- (Spleen/Total Flux) * 100%: 0.81%
- Multiple of spleen delivery/total delivery (Spleen/Total Flux) to Compound 118: 0.71

Compound: CCCCCCC(CCCCCC)OC(=O)CCCCCCCCC(CCCCCCCCC(=O)OC(CCCCCC)CCCCCC)N(CCCCN(C)C)C(=O)COCCCC [compound 166]
- Total flux (fluorescence expression intensity): 1.25E+07
- Liver (fluorescence expression intensity): 7.74E+06
- Spleen (fluorescence expression intensity): 8.07E+06
- (Spleen/Total Flux) * 100%: 64.56%
- Multiple of spleen delivery/total delivery (Spleen/Total Flux) to Compound 118: 56.63

Compound: CCCCCCC(CCCCCC)OC(=O)CCCCCCCCC(CCCCCCCCC(=O)OC(CCCCCC)CCCCCC)N(CCCCN(C)C)C(=O)COCCCCC [compound 167]
- Total flux (fluorescence expression intensity): 4.02E+07
- Liver (fluorescence expression intensity): 4.42E+06
- Spleen (fluorescence expression intensity): 7.64E+06
- (Spleen/Total Flux) * 100%: 19.00%
- Multiple of spleen delivery/total delivery (Spleen/Total Flux) to Compound 118: 16.67

Compound: CCCCCCOCC(=O)N(CCCCN(C)C)C(CCCCCCCCC(=O)OC(CCCCCC)CCCCCC)CCCCCCCCC(=O)OC(CCCCCC)CCCCCC [compound 168]
- Total flux (fluorescence expression intensity): 2.68E+07
- Liver (fluorescence expression intensity): 9.12E+06
- Spleen (fluorescence expression intensity): 8.95E+06
- (Spleen/Total Flux) * 100%: 33.40%
- Multiple of spleen delivery/total delivery (Spleen/Total Flux) to Compound 118: 29.29

Compound: CCCCCCCOCC(=O)N(CCCCN(C)C)C(CCCCCCCCC(=O)OC(CCCCCC)CCCCCC)CCCCCCCCC(=O)OC(CCCCCC)CCCCCC [compound 169]
- Total flux (fluorescence expression intensity): 1.17E+07
- Liver (fluorescence expression intensity): 6.59E+06
- Spleen (fluorescence expression intensity): 5.11E+06
- (Spleen/Total Flux) * 100%: 43.68%
- Multiple of spleen delivery/total delivery (Spleen/Total Flux) to Compound 118: 38.31

Compound: CCCCCCCCOCC(=O)N(CCCCN(C)C)C(CCCCCCCCC(=O)OC(CCCCCC)CCCCCC)CCCCCCCCC(=O)OC(CCCCCC)CCCCCC [compound 170]
- Total flux (fluorescence expression intensity): 2.89E+07
- Liver (fluorescence expression intensity): 1.34E+07
- Spleen (fluorescence expression intensity): 1.07E+07
- (Spleen/Total Flux) * 100%: 37.02%
- Multiple of spleen delivery/total delivery (Spleen/Total Flux) to Compound 118: 32.48

Compound: CCCCCCC(CCCCCC)OC(=O)CCCCCCCCC(CCCCCCCCC(=O)OC(CCCCCC)CCCCCC)N(CCCCN(C)C)C(=O)CCOCCCC [compound 171]
- Total flux (fluorescence expression intensity): 1.15E+07
- Liver (fluorescence expression intensity): 5.33E+06
- Spleen (fluorescence expression intensity): 3.97E+06
- (Spleen/Total Flux) * 100%: 34.52%
- Multiple of spleen delivery/total delivery (Spleen/Total Flux) to Compound 118: 30.28

Compound: CCCCCCC(CCCCCC)OC(=O)CCCCCCCCC(CCCCCCCCC(=O)OC(CCCCCC)CCCCCC)N(CCCCN(C)C)C(=O)CCOCCCCC [compound 172]
- Total flux (fluorescence expression intensity): 8.64E+07
- Liver (fluorescence expression intensity): 3.10E+07
- Spleen (fluorescence expression intensity): 9.69E+06
- (Spleen/Total Flux) * 100%: 11.22%
- Multiple of spleen delivery/total delivery (Spleen/Total Flux) to Compound 118: 9.84

Compound: CCCCCCOCCC(=O)N(CCCCN(C)C)C(CCCCCCCCC(=O)OC(CCCCCC)CCCCCC)CCCCCCCCC(=O)OC(CCCCCC)CCCCCC [compound 173]
- Total flux (fluorescence expression intensity): 2.07E+07
- Liver (fluorescence expression intensity): 9.15E+06
- Spleen (fluorescence expression intensity): 8.03E+06
- (Spleen/Total Flux) * 100%: 38.79%
- Multiple of spleen delivery/total delivery (Spleen/Total Flux) to Compound 118: 34.03

Compound: CCCCCCCOCCC(=O)N(CCCCN(C)C)C(CCCCCCCCC(=O)OC(CCCCCC)CCCCCC)CCCCCCCCC(=O)OC(CCCCCC)CCCCCC [compound 174]
- Total flux (fluorescence expression intensity): 9.59E+07
- Liver (fluorescence expression intensity): 1.62E+07
- Spleen (fluorescence expression intensity): 7.28E+06
- (Spleen/Total Flux) * 100%: 7.59%
- Multiple of spleen delivery/total delivery (Spleen/Total Flux) to Compound 118: 6.66

Compound: CCCCCCCCOCCC(=O)N(CCCCN(C)C)C(CCCCCCCCC(=O)OC(CCCCCC)CCCCCC)CCCCCCCCC(=O)OC(CCCCCC)CCCCCC [compound 175]
- Total flux (fluorescence expression intensity): 5.15E+07
- Liver (fluorescence expression intensity): 1.57E+07
- Spleen (fluorescence expression intensity): 1.21E+07
- (Spleen/Total Flux) * 100%: 23.50%
- Multiple of spleen delivery/total delivery (Spleen/Total Flux) to Compound 118: 20.61

Compound: CCCCCCC(CCCCCC)OC(=O)CCCCCCCCC(CCCCCCCCC(=O)OC(CCCCCC)CCCCCC)N(CCCCN(C)C)C(=O)CCCOCCCCC [compound 177]
- Total flux (fluorescence expression intensity): 2.52E+07
- Liver (fluorescence expression intensity): 5.04E+06
- Spleen (fluorescence expression intensity): 3.23E+06
- (Spleen/Total Flux) * 100%: 12.82%
- Multiple of spleen delivery/total delivery (Spleen/Total Flux) to Compound 118: 11.24
